Reference: patent publication US20110039816A1, “THERAPEUTIC SUBSTANCE, PHARMACEUTICAL COMPOSITION, HELICOBACTER PYLORI GROWTH INHIBITOR AND METHOD FOR CONDUCTING ANTI-HELICOBACTER THERAPY” (priority 2007, published 2011)
“Also recorded” adds a separate entry of the source.

System: H. pylori
Assay: Effect of comparator drugs and CGNC on the growth of H. pylori patient strains
Assay type: cell-based, Helicobacter pylori
Parameters: key to Effect on the growth of H. pylori: (+) - inhibition of growth; (−) - no inhibition of growth
Settings: for Effect on growth of H. pylori: strains 782, 785, 786, 787
Description: The effect of the following doses of CGNC was examined: 50, 100, and 300 mg/ml. Bacteriological methods were used to conduct the study. Three doses of CGNC (50, 100 and 300 mg/ml) were used for analysis of the CGNC effect on the growth of H. pylori. Serial dilutions, of dense nutrient media containing an increasing concentration of the test substance were set up. Isolates of H. pylori inoculated on standard for this type of bacteria mediums (without CGNC) were used to control the microbial growth. The effect of the test substance was compared with the effect of the placebo (sterile saline solution—0.15 M NaCl, pH 7.0-7.2). In a comparative experiment, the effect of the antimicrobials, amoxicillin (20 μg/ml) and metronidazole (80 μg/ml), were evaluated.
Metronidazole and amoxicillin, the most common used therapeutical substances in combined anti-helicobacter therapy, were chosen as comparator-drugs. H. pylori isolated from patients (No. 782, 785, 786, 787), were used to compare the effect of CGNC (300 mg/ml), amoxicillin (20 μg/ml) and metronidazole (80 μg/ml) (Table 3). These strains were isolated from patients with chronic gastroduodenitis, gastritis associated with gastric stump, duodenal ulcer and reflux esophagitis.

## CC1(C)S[C@@H]2[C@H](NC(=O)[C@H](N)c3ccc(O)cc3)C(=O)N2[C@H]1C(=O)O [Amoxicillin]
Amoxicillin 20 μg/ml
  Effect on growth of H. pylori: inhibited the growth; also recorded: inhibition of growth occurred
Strain 782 (CGD), Amoxicillin 20 μg/ml
  Effect on the growth of H. pylori: +
Strain 785 (gastritis associated with gastric stump), Amoxicillin 20 μg/ml
  Effect on the growth of H. pylori: +
Strain 786 (DU, reflux esophagitis), Amoxicillin 20 μg/ml
  Effect on the growth of H. pylori: +
Strain 787 (CGD), Amoxicillin 20 μg/ml
  Effect on the growth of H. pylori: +

## Cc1ncc([N+](=O)[O-])n1CCO [Metronidazole]
Metronidazole 80 μg/ml
  Effect on growth of H. pylori: did not have an inhibiting effect; also recorded: did not inhibit the growth
Strain 782 (CGD), Metronidazole 80 μg/ml
  Effect on the growth of H. pylori: −
Strain 785 (gastritis associated with gastric stump), Metronidazole 80 μg/ml
  Effect on the growth of H. pylori: −
Strain 786 (DU, reflux esophagitis), Metronidazole 80 μg/ml
  Effect on the growth of H. pylori: −
Strain 787 (CGD), Metronidazole 80 μg/ml
  Effect on the growth of H. pylori: −
